According to patent US5840684A, “Glycopeptide antibiotic derivatives” (Eli Lilly and Company, priority 1995, dated 1998):
Converted amounts (≈) assume the structure as drawn.

Tests used:
[1] = tested on: Staphylococcus aureus S13E; type: cell-based
Description: (§1) The MIC's were determined using a standard broth micro-dilution assay.

[2] = tested on: Staphylococcus aureus SA1199B; type: cell-based
Description: as §1

[3] = tested on: Entercoccus faecium 180-1; assay: broth micro-dilution MIC; type: cell-based
Description: as §1

Entercoccus faecium 276 = assay: broth micro-dilution MIC; type: cell-based
Description: as §1

[4] = tested on: Staphylococcus aureus 446; assay: broth micro-dilution MIC; type: cell-based
Description: as §1

[5] = tested on: Staphylococcus aureus 447; assay: broth micro-dilution MIC; type: cell-based
Description: as §1

[6] = tested on: Staphylococcus aureus 489; assay: broth micro-dilution MIC; type: cell-based
Description: as §1

[7] = tested on: Staphylococcus aureus 491; assay: broth micro-dilution MIC; type: cell-based
Description: as §1

[8] = tested on: Staphylococcus aureus SA1199A; assay: broth micro-dilution MIC; type: cell-based
Description: as §1

[9] = tested on: Staphylococcus aureus SA1199; assay: broth micro-dilution MIC; type: cell-based
Description: as §1

[10] = tested on: Staphylococcus aureus X400; assay: broth micro-dilution MIC; type: cell-based
Description: as §1

[11] = tested on: Staphylococcus aureus X778; assay: broth micro-dilution MIC; type: cell-based
Description: as §1

[12] = tested on: Streptococcus pyogenes C203; assay: broth micro-dilution MIC; type: cell-based
Description: as §1

Entercoccus faecium 180 = assay: broth micro-dilution MIC; type: cell-based; conditions: Entercoccus faecium 180
Description: (§2) The formula I compounds have in vitro and in vivo activity against Gram-positive pathogenic bacteria. The MIC's were determined using a standard broth micro-dilution assay.

Entercoccus faecium 2041 = assay: broth micro-dilution MIC; type: cell-based; conditions: Entercoccus faecium 2041
Description: as §2

[13] = tested on: Enterococcus gallinarum 245; assay: broth micro-dilution MIC; type: cell-based; conditions: Enterococcus gallinarum 245
Description: as §2

Escherichia coli EC14 = assay: broth micro-dilution MIC; type: cell-based
Description: as §2

[14] = tested on: Haemophilus influenzae RD; assay: broth micro-dilution MIC; type: cell-based; conditions: Haemophilus influenzae RD
Description: as §2

[15] = tested on: Staphylococcus epidermidis 270; assay: broth micro-dilution MIC; type: cell-based
Description: as §2

[16] = tested on: Staphylococcus haemolyticus 105; assay: broth micro-dilution MIC; type: cell-based
Description: as §2

[17] = tested on: Staphylococcus haemolyticus 415; assay: broth micro-dilution MIC; type: cell-based
Description: as §2

[18] = tested on: Streptococcus pneumoniae P1; assay: broth micro-dilution MIC; type: cell-based
Description: as §2

[19] = tested on: vancomycin-resistant enterococci; assay: broth micro-dilution, mean geometric MIC; type: cell-based, Enterococcus faecium and Enterococcus faecalis; conditions: enterococci, 24-hour incubation
[20] = tested on: vancomycin-susceptible enterococci; assay: broth micro-dilution, mean geometric MIC; type: cell-based, Enterococcus faecium and Enterococcus faecalis; conditions: enterococci, 24-hour incubation

| SMILES | MIC [1] [µg/mL] | MIC [2] [µg/mL] | MIC [3] [µg/mL] | MIC (Entercoccus faecium 276) [µg/mL] | MIC [4] [µg/mL] | MIC [5] [µg/mL] | MIC [6] [µg/mL] | MIC [7] [µg/mL] | MIC [9] [µg/mL] | MIC [10] [µg/mL] | MIC [11] [µg/mL] | MIC (Entercoccus faecium 180) [µg/mL] | MIC (Entercoccus faecium 2041) [µg/mL] | MIC [13] [µg/mL] | MIC (Escherichia coli EC14) [µg/mL] | MIC [14] [µg/mL] | MIC [15] [µg/mL] | MIC [16] [µg/mL] | mean geometric MIC, Vancomycin Resistant Strains [19] [µg/mL] | mean geometric MIC, Vancomycin Sensitive Strains [20] [µg/mL] | other results |
| --- | --- | --- | --- | --- | --- | --- | --- | --- | --- | --- | --- | --- | --- | --- | --- | --- | --- | --- | --- | --- | --- |
| CC(C)CC(C(=O)NC1C(=O)NC(CC(N)=O)C(=O)NC2C(=O)NC3C(=O)NC(C(=O)NC(C(=O)O)c4cc(O)cc(O)c4-c4cc3ccc4O)C(OC3CC(C)(N)C(O)C(C)O3)c3ccc(c(Cl)c3)Oc3cc2cc(c3OC2OC(CO)C(O)C(O)C2OC2CC(C)(NCc3ccccn3)C(O)C(C)O2)Oc2ccc(cc2Cl)C1O)N(C)Cc1ccccn1 (stereo not shown) [Compound 281] | 32 (≈ 18 µM) | 32 (≈ 18 µM) | 4 (≈ 2.25 µM) | 8 (≈ 4.51 µM) | 64 (≈ 36.1 µM) | > 64 | 32 (≈ 18 µM) | > 64 | > 64 | > 64 | 16 (≈ 9.02 µM) | > 64 | 8 (≈ 4.51 µM) | > 64 | > 64 | > 64 | > 64 | > 64 | > 128 | 37 | MIC [8]: 4 µg/mL (≈ 2.25 µM); MIC [12]: 0.5 µg/mL (≈ 0.282 µM); MIC [17]: > 64 µg/mL; MIC [18]: ≤ 0.06 µg/mL |
| CC(C)CC(C(=O)NC1C(=O)NC(CC(N)=O)C(=O)NC2C(=O)NC3C(=O)NC(C(=O)NC(C(=O)O)c4cc(O)cc(O)c4-c4cc3ccc4O)C(OC3CC(C)(N)C(O)C(C)O3)c3ccc(c(Cl)c3)Oc3cc2cc(c3OC2OC(CO)C(O)C(O)C2OC2CC(C)(NCc3ccc(N(C)c4ccccc4)cc3)C(O)C(C)O2)Oc2ccc(cc2Cl)C1O)N(C)Cc1ccc(N(C)c2ccccc2)cc1 (stereo not shown) [Compound 260] | 4 (≈ 2.02 µM) | 2 (≈ 1.01 µM) | 0.25 (≈ 0.126 µM) | 2 (≈ 1.01 µM) | 2 (≈ 1.01 µM) | 4 (≈ 2.02 µM) | 2 (≈ 1.01 µM) | 1 (≈ 0.504 µM) | 2 (≈ 1.01 µM) | 4 (≈ 2.02 µM) | 1 (≈ 0.504 µM) | 0.5 (≈ 0.252 µM) | 1 (≈ 0.504 µM) | 0.25 (≈ 0.126 µM) | > 64 | > 64 | 1 (≈ 0.504 µM) | 1 (≈ 0.504 µM) | 4.8 | 1.1 | MIC [8]: 0.5 µg/mL (≈ 0.252 µM); MIC [12]: ≤ 0.06 µg/mL; MIC [17]: 2 µg/mL (≈ 1.01 µM); MIC [18]: ≤ 0.06 µg/mL |
| CC(C)CC(C(=O)NC1C(=O)NC(CC(N)=O)C(=O)NC2C(=O)NC3C(=O)NC(C(=O)NC(C(=O)O)c4cc(O)cc(O)c4-c4cc3ccc4O)C(OC3CC(C)(N)C(O)C(C)O3)c3ccc(c(Cl)c3)Oc3cc2cc(c3OC2OC(CO)C(O)C(O)C2OC2CC(C)(NCc3cc4ccccc4s3)C(O)C(C)O2)Oc2ccc(cc2Cl)C1O)N(C)Cc1cc2ccccc2s1 (stereo not shown) [Compound 276] | 2 (≈ 1.06 µM) | 1 (≈ 0.531 µM) | 0.25 (≈ 0.133 µM) | 1 (≈ 0.531 µM) | 1 (≈ 0.531 µM) | 4 (≈ 2.12 µM) | 1 (≈ 0.531 µM) | 1 (≈ 0.531 µM) | 1 (≈ 0.531 µM) | 2 (≈ 1.06 µM) | 1 (≈ 0.531 µM) | 4 (≈ 2.12 µM) | 1 (≈ 0.531 µM) | 4 (≈ 2.12 µM) | > 64 | > 64 | 4 (≈ 2.12 µM) | 4 (≈ 2.12 µM) | 23 | 1.3 | MIC [8]: 0.25 µg/mL (≈ 0.133 µM); MIC [12]: ≤ 0.06 µg/mL; MIC [17]: 4 µg/mL (≈ 2.12 µM); MIC [18]: ≤ 0.06 µg/mL |
| CNC(CC(C)C)C(=O)NC1C(=O)NC(CC(N)=O)C(=O)NC2C(=O)NC3C(=O)NC(C(=O)NC(C(=O)O)c4cc(O)cc(O)c4-c4cc3ccc4O)C(OC3CC(C)(N)C(O)C(C)O3)c3ccc(c(Cl)c3)Oc3cc2cc(c3OC2OC(CO)C(O)C(O)C2OC2CC(C)(NCc3ccc4ccccc4n3)C(O)C(C)O2)Oc2ccc(cc2Cl)C1O (stereo not shown) [Compound 30] | 0.125 (≈ 0.0721 µM) | 0.125 (≈ 0.0721 µM) | ≤ 0.06 | 0.25 (≈ 0.144 µM) | 1 (≈ 0.577 µM) | 2 (≈ 1.15 µM) | 0.125 (≈ 0.0721 µM) | 0.5 (≈ 0.288 µM) | 0.5 (≈ 0.288 µM) | ≤ 0.06 | ≤ 0.06 | 2 (≈ 1.15 µM) | ≤ 0.06 | ≤ 0.06 | > 64 | > 64 | 2 (≈ 1.15 µM) | 4 (≈ 2.31 µM) | 4.7 | 0.071 |  |
| CC(C)CC(C(=O)NC1C(=O)NC(CC(N)=O)C(=O)NC2C(=O)NC3C(=O)NC(C(=O)NC(C(=O)O)c4cc(O)cc(O)c4-c4cc3ccc4O)C(OC3CC(C)(NCc4cccc5c([N+](=O)[O-])cccc45)C(O)C(C)O3)c3ccc(c(Cl)c3)Oc3cc2cc(c3OC2OC(CO)C(O)C(O)C2OC2CC(C)(N)C(O)C(C)O2)Oc2ccc(cc2Cl)C1O)N(C)Cc1cccc2c([N+](=O)[O-])cccc12 (stereo not shown) [Compound 286] | 4 (≈ 2.04 µM) | 4 (≈ 2.04 µM) | 0.25 (≈ 0.127 µM) | 1 (≈ 0.509 µM) | 1 (≈ 0.509 µM) | 8 (≈ 4.08 µM) | 2 (≈ 1.02 µM) | 2 (≈ 1.02 µM) | 2 (≈ 1.02 µM) | 2 (≈ 1.02 µM) | 4 (≈ 2.04 µM) | 8 (≈ 4.08 µM) | 1 (≈ 0.509 µM) | 4 (≈ 2.04 µM) | > 64 | > 64 | 4 (≈ 2.04 µM) | 8 (≈ 4.08 µM) | 19 | 1.1 | MIC [8]: ≤ 0.06 µg/mL; MIC [12]: ≤ 0.06 µg/mL; MIC [17]: 4 µg/mL (≈ 2.04 µM); MIC [18]: ≤ 0.06 µg/mL |
| COc1cc(CNC2(C)CC(OC3C(Oc4c5cc6cc4Oc4ccc(cc4Cl)C(OC4CC(C)(N)C(O)C(C)O4)C4NC(=O)C(NC(=O)C6NC(=O)C(CC(N)=O)NC(=O)C(NC(=O)C(CC(C)C)N(C)Cc6ccc(OCc7ccccc7)c(OC)c6)C(O)c6ccc(c(Cl)c6)O5)c5ccc(O)c(c5)-c5c(O)cc(O)cc5C(C(=O)O)NC4=O)OC(CO)C(O)C3O)OC(C)C2O)ccc1OCc1ccccc1 (stereo not shown) [Compound 268] | 4 (≈ 1.96 µM) | 2 (≈ 0.978 µM) | 0.25 (≈ 0.122 µM) | 2 (≈ 0.978 µM) | 2 (≈ 0.978 µM) | 4 (≈ 1.96 µM) | 1 (≈ 0.489 µM) | 1 (≈ 0.489 µM) | 4 (≈ 1.96 µM) | 2 (≈ 0.978 µM) | 2 (≈ 0.978 µM) | 0.5 (≈ 0.244 µM) | 1 (≈ 0.489 µM) | 4 (≈ 1.96 µM) | > 64 | > 64 | 1 (≈ 0.489 µM) | 8 (≈ 3.91 µM) | 6.7 | 0.87 | MIC [8]: 0.5 µg/mL (≈ 0.244 µM); MIC [12]: ≤ 0.06 µg/mL; MIC [17]: 4 µg/mL (≈ 1.96 µM); MIC [18]: ≤ 0.06 µg/mL |
| CNC(CC(C)C)C(=O)NC1C(=O)NC(CC(N)=O)C(=O)NC2C(=O)NC3C(=O)NC(C(=O)NC(C(=O)O)c4cc(O)cc(O)c4-c4cc3ccc4O)C(OC3CC(C)(NCc4ccc([N+](=O)[O-])cc4)C(O)C(C)O3)c3ccc(c(Cl)c3)Oc3cc2cc(c3OC2OC(CO)C(O)C(O)C2OC2CC(C)(NCc3ccc([N+](=O)[O-])cc3)C(O)C(C)O2)Oc2ccc(cc2Cl)C1O (stereo not shown) [Compound 245] |  | ≤ 0.06 | ≤ 0.06 | ≤ 0.06 | ≤ 0.06 | ≤ 0.06 | ≤ 0.06 | 0.5 (≈ 0.268 µM) | 0.25 (≈ 0.134 µM) | ≤ 0.06 | ≤ 0.06 | 2 (≈ 1.07 µM) | ≤ 0.06 | ≤ 0.06 | 0.5 (≈ 0.268 µM) | > 64 | 0.5 (≈ 0.268 µM) | 1 (≈ 0.537 µM) | 13 | 0.38 | MIC [8]: ≤ 0.06 µg/mL; MIC [12]: 2 µg/mL (≈ 1.07 µM); MIC [17]: 8 µg/mL (≈ 4.29 µM); MIC [18]: 1 µg/mL (≈ 0.537 µM) |
